# Experimental data taken from article PMC2804440 (Neuron, 2009).
# Assays:
# [1] = target: T1, LGC-55 (Caenorhabditis elegans, UniProt G5EEC1); assay: two-electrode voltage clamp, Xenopus oocytes; assay type: cell-based
# T1 sequence (G5EEC1 17-538): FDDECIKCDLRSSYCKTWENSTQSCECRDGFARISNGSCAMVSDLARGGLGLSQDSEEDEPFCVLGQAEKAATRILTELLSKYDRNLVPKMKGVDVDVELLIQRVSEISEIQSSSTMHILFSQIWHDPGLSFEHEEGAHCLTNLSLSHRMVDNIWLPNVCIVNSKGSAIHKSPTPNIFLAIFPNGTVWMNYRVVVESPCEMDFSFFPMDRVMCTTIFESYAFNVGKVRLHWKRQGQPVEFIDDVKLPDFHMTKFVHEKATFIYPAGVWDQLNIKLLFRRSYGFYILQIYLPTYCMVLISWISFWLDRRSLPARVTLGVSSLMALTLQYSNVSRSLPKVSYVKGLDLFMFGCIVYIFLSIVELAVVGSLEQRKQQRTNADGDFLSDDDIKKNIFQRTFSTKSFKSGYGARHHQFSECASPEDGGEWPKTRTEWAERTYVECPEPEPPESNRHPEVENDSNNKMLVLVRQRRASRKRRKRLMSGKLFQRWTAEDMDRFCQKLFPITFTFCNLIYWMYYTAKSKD
# [2] = target: T1, LGC-55; assay: two-electrode voltage clamp, Xenopus oocytes; assay type: cell-based; conditions: weak agonist; ND96, -60 mV, 10 s application, 22-24 °C
SMILES,EC50 [1],small inward currents at millimolar concentrations [2]
NCCc1ccc(O)c(O)c1 [dopamine],158.8 ± 1.1 µM,
NC[C@H](O)c1ccc(O)cc1 [octopamine],215.2 ± 1.1 µM,
NCCc1c[nH]c2ccc(O)cc12 [serotonin],,serotonin only elicited small LGC-55-dependent inward currents at millimolar concentrations
NCCc1ccc(O)cc1 [tyramine],12.1 ± 1.2 µM,
